Patent publication US12570657B2, “Mesylate salts of heterocyclic cytokinins, compositions containing these derivatives and use thereof” (UNIVERZITA PALACKEHO V OLOMOUCI, priority 2020, dated 2026)
Converted amounts (≈) assume the structure as drawn. Like-named read-outs stand apart in the source and are kept apart here.

Key:
[1] = tested on: Spring barley (variety Francin); experiment: Field trial: grain yield and productive tillers of spring barley after foliar spray; assay type: in vivo; conditions: for Length of plants / Medium tillers (number) / Number of spikes per square meter / SUM of tillers / Strong tillers (number) / Weak tillers (number) / Grain yield (t/ha) at 14% humidity / Grain yield, % compared to control / Length of plants, % compared to control / Medium tillers, % compared to control / Number of spikes per square meter, % compared to control / SUM of tillers, % compared to control / Strong tillers, % compared to control / Weak tillers, % compared to control: 5 uMol; for Length of plants / Medium tillers (number) / Number of spikes per square meter / SUM of tillers / Strong tillers (number) / Weak tillers (number) / Grain yield, % compared to control / Length of plants, % compared to control / Medium tillers, % compared to control / Number of spikes per square meter, % compared to control / SUM of tillers, % compared to control / Strong tillers, % compared to control / Weak tillers, % compared to control: application BBCH 31-33; for Grain yield (t/ha) at 14% humidity: application BBCH 31-33, spring barley; for Grain yield, % compared to control / Length of plants, % compared to control / Medium tillers, % compared to control / Number of spikes per square meter, % compared to control / SUM of tillers, % compared to control / Strong tillers, % compared to control / Weak tillers, % compared to control: untreated control = 100; for Grain yield: foliar spray 300 l/ha, BBCH 31-33
Description: Spring barley (variety Francin) was treated in 2019 at the locality in Olomouc, sprayed with substances—marked BAP (benzylaminopurine), meta-topolin mesylate and BAP mesylate. The seed was 3.5 million germinating seeds, the experiment was established in 5 randomized replicates for each variant, the control was an untreated variant. The experiment was performed according to the GEP (Good Experimental Practice) methodology, the size of individual plots was 10 m^2. The application of the substances was carried out at a rate of 300 l/ha, in the growth phase BBCH 31-33 (beginning of peeling).

[2] = water; reported value; cited from earlier work
[3] = Solubility in organic solvents (progressive solvent addition); assay type: physicochemical; conditions: organic solvent or mixture, thermodynamic from solid
Description: Solubility in organic solvents was measured using the following protocol. Approximately 25 mg portions of meta-topolin and crystalline meta-topolin mesylate salt were placed in 48 different vials, separately. 5 volume aliquots of each solvent were added progressively (repeatedly) to the vials. After each addition, the mixture was checked for dissolution and if no dissolution was visible, the procedure was continued until dissolution was observed, or until 50 volumes have been added.

NIH-3T3 = experiment: In vitro cytotoxicity, Calcein AM assay, NIH-3T3; assay type: cell-based; conditions: Mus musculus, NIH3T3, 72 h, 3-day Calcein-AM assay
Text: Because toxic compounds adversely affect cell metabolic processes, many standard cytotoxicity assays are based on measuring the rate of metabolism of various artificial substrates. The resulting product is then quantified, for example, by spectrometry. Assays can be easily modified for use in 96-well plates, A microtiter assay based on the quantification of Calcein AM metabolism was used to evaluate the cytotoxicity of cytokinins, for example meta-topolin, ortho-topolin, kinetin, BAP or its mesylate salts, but also a number of other cytokinin mesylate derivatives according to the invention. The test is widely used in drug screening programs and in chemosensitivity testing. In living cells, Calcein AM is enzymatically hydrolyzed and the accumulation of the resulting calcein is manifested by green fluorescence. The following cell lines—RPMI 8226 (multiple myeloma), CEM (T-lymphoblastic leukemia), K562 (chronic myeloid leukemia), HL-60 (promyelocytic, leukemia), MCF-7 (breast adenocarcinoma), HeLa (cervical cancer), G361 (malignant melanoma), HOS (human osteosarcoma) and BJ (human foreskin fibroblasts)—were obtained from the American Type Culture Collection (Manassas, VA, USA). These cells were maintained in standard DMEM or RPMI medium (Sigma, MO, USA) supplemented with heat-inactivated fetal bovine serum (10%) with 2 mM L-glutamine and penicillin-streptomycin (1%) under standard cell culture conditions (37° C., 5% CO2 in a humid environment) and subcultured two or three times a week using a standard trypsinization procedure. Approximately 10,000 cells in 80 μl of medium were seeded in a 96-well microtiter plate. After 12 hours of incubation, the compounds to be tested were added in 20 μl aliquots. Control cultures were treated with DMSO alone. […] Serial, 3-fold dilutions (six in total, peak concentrations in 166 μM incubations) of each compound were tested. After 72 hours of incubation, Calcein AM solution (Molecular Probes) was added to a final concentration of 1 μg/ml and the cells were incubated for another hour. Free calcein fluorescence was then quantified using a Fluoroscan Ascent fluorometer (Microsystems), and the percentage of surviving cells in each well was calculated by dividing the OD obtained from each cell by the exposed cells by the mean OD obtained from control wells×100%, Finally, IC50 values (concentration causing a 50% decrease in cellular esterase activity) were calculated for each compound generated from dose-response curves (Krys̆tof et al., 2005, Bioorg. Med. Chem. Lett. 12, 3283-3286). The IC50 values reported here are averages obtained from at least three independent experiments, where the individual replication values fell within 20% of the average. […]

[4] = Disproportionation stability study (water slurry, XRPD); assay type: physicochemical; conditions: slurried in distilled water ca. 48 hours
Description: A 50 mg sample of crystalline meta-topolin mesylate crystalline salt was slurried in 250 μL distilled water for ca. 48 hours and then checked by XRPD for disproportionation.

[5] = Storage stability study of solid crystalline salt (XRPD, colour); assay type: physicochemical; conditions: sealed tube, 25° C., 60 days
Description: 50 mg sample of crystalline meta-topolin mesylate crystalline salt was placed in an eppendorf tube and sealed. The sample was kept at 25° C. for 60 days. No color change was noted during the storage period. XRPD of samples were taken after 60 days to investigate any solid form change.

[6] = DMF, read-out: Solubility in DMF
[7] = DMSO, read-out: Solubility in DMSO
[8] = acetone, read-out: Solubility in aceton
[9] = acetonitrile, read-out: Solubility in acetonitrile
[10] = ethanol, read-out: Solubility in ethanol
[11] = heptane, read-out: Solubility in heptane
[12] = methanol, read-out: Solubility in methanol

SMILES | Length of plants [1] | Medium tillers (number) [1] | Number of spikes per square meter [1] | SUM of tillers [1] | Strong tillers (number) [1] | Weak tillers (number) [1] | Grain yield (t/ha) at 14% humidity [1] | Grain yield, % compared to control [1] | Length of plants, % compared to control [1] | Medium tillers, % compared to control [1] | Number of spikes per square meter, % compared to control [1] | SUM of tillers, % compared to control [1] | Strong tillers, % compared to control [1] | Weak tillers, % compared to control [1] | Grain yield [1] | solubility [3, 6] | solubility [3, 7] | solubility [3, 8] | solubility [3, 9] | solubility [3, 10] | also measured
c1ccc(CNc2ncnc3nc[nH]c23)cc1 [BAP, 6-benzylaminopurine] | 82.5 cm | 1.7 | 752 | 6.6 | 2.8 | 2.1 | 7.42 t/ha | 100.13% | 99.64% | 80.95% | 111.11% | 114.78% | 155.56% | 113.51% | did not affect grain yield | – | – | – | – | – | –
Oc1cccc(CNc2ncnc3nc[nH]c23)c1 [meta-topolin (mT), 6-(3-hydroxybenzylamino)purine] | – | – | – | – | – | – | – | – | – | – | – | – | – | – | – | 6000 µg/mL (≈ 24.9 mM) | 24000 µg/mL (≈ 99.5 mM) | 400 µg/mL (≈ 1.66 mM) | < 250 µg/mL | 5000 µg/mL (≈ 20.7 mM) | aqueous solubility (reported) [2]: < 250 µg/mL; solubility [3, 11]: < 100 µg/mL; solubility [3, 12]: 5000 µg/mL (≈ 20.7 mM)
COc1cccc(CNc2ncnc3nc[nH]c23)c1 [3MeOBAP, 6-(3-methoxybenzylamino)purine] | – | – | – | – | – | – | – | – | – | – | – | – | – | – | – | – | – | – | – | – | IC50 (NIH-3T3): > 167 µM
CS(=O)(=O)O.c1ccc(CNc2ncnc3nc[nH]c23)cc1 [BAP mesylate, 6-benzylaminopurine mesylate] | 83.2 cm | 1.35 | 758.4 | 6.35 | 2.75 | 2.25 | 7.74 t/ha | 104.34% | 100.48% | 64.29% | 112.06% | 110.43% | 152.78% | 121.62% | 104.34 % at control | – | – | – | – | – | IC50 (NIH-3T3): > 167 µM
CS(=O)(=O)O.Oc1cccc(CNc2ncnc3nc[nH]c23)c1 [mT mesylate, 6-(3-hydroxybenzylamino)purine mesylate] | – | – | – | – | – | – | – | – | – | – | – | – | – | – | 108.03 % at control | 6000 µg/mL | 22000 µg/mL | 400 µg/mL | < 250 µg/mL | 400 µg/mL | Disproportionation (XRPD) [4]: No signs of disproportionation were observed; solubility [3, 11]: < 100 µg/mL; solubility [3, 12]: 700 µg/mL; Storage stability (XRPD pattern and colour) [5]: did not reveal any changes in XRPD spektra, or change in color
